The values below come from publication PMC12040169 (PLOS Biology, 2025).

The nature of the data set: in vitro. To be noted: human, hela cells, % viability.

With `Cc1ccc(S(=O)(=O)NCCCO)cc1C(=O)O` [CBK266610], the viability (as a rule, a read-out of living cells in per cent, often relative to untreated cells) at 28.5 h, 10 µM was 89.7%.

With `COc1ccc(CNC(=O)CSc2nnc(-c3ccncc3)n2C)cc1` [CBK266613], the viability at 28.5 h, 10 µM is 95%.

Take `C=CCOc1ccc(-c2nc3s/c(=C4\C(=O)N(Cc5ccccc5F)c5ccccc54)c(=O)n3n2)cc1` [CBK266615]: the viability at 28.5 h, 10 µM worked out at 108%.

Consider `C#CCOc1cc(Br)c(/C=C(/C#N)c2ccc([N+](=O)[O-])cc2)cc1OCC` [CBK266617], for which the viability at 28.5 h, 10 µM was 104%.

Regarding `Cn1cnnc1Sc1cc(N2CCN(S(=O)(=O)c3ccc(Cl)c(Cl)c3)CC2)ccc1[N+](=O)[O-]` [CBK266618], the viability at 28.5 h, 10 µM was found to be 98.3%.

As for `COc1cc(C=O)ccc1OC(=O)c1nsc(Cl)c1Cl` [CBK266619], the viability at 28.5 h, 10 µM was found to be 89.1%.

In the case of `O=C(CSc1nnc(-c2ccncc2)n1-c1ccccc1)Nc1ccc([N+](=O)[O-])cc1` [CBK266620], the viability at 28.5 h, 10 µM is 96.3%.

For the molecule `COc1ccc(OC)c(NC(=O)CSc2nnc(-c3ccncc3)n2C)c1` [CBK266623], the viability at 28.5 h, 10 µM came to 103%.

Take `O=C(Nc1ccc(S(=O)(=O)Nc2cncs2)cc1)c1ccc(-c2cccc(C(F)(F)F)c2)o1` [CBK266625]: the viability at 28.5 h, 10 µM was determined as 89%.

As for `CCN(CC)CCn1c2ccccc2c2nc(C)sc21` [CBK266628C], the viability at 28.5 h, 10 µM amounted to 100%.

Regarding `COc1ccccc1-c1nnc(SCc2ccc(C(=O)O)cc2)[nH]1` [CBK266631], the viability at 28.5 h, 10 µM was 99.5%.

As for `Cc1cc(S(=O)(=O)NCC(=O)O)ccc1F` [CBK266632], the viability at 28.5 h, 10 µM is 112%.

As to `Cc1cc(C)c(OCC(=O)Nc2ccc3oc(-c4cncc(Br)c4)nc3c2)c(Cl)c1` [CBK266634], the viability at 28.5 h, 10 µM came to 100%.

For the molecule `OCCNc1nc(Nc2ccc(Cl)cc2)nc(N2CCCCC2)n1` [CBK266638], the viability at 28.5 h, 10 µM was 97.3%.

As to `CC(=O)C(Sc1nc(N2CCOCC2)nc(N2CCOCC2)n1)C(=O)Nc1ccccc1` (stereo not shown) [CBK266643], the viability at 28.5 h, 10 µM amounted to 93%.

For `CN(Cc1ccccc1)S(=O)(=O)c1ccc2c(c1)n(C)c(=O)n2C` [CBK266644], the viability at 28.5 h, 10 µM came out at 95.6%.

As to `O=C(NCc1ccccn1)C1CCC(Cn2c(=S)[nH]c3ccccc3c2=O)CC1` (stereo not shown) [CBK266645], the viability at 28.5 h, 10 µM stood at 95.6%.

As to `CN1CCN(S(=O)(=O)c2ccc3c4c(cccc24)C(=O)N3)CC1` [CBK266647], the viability at 28.5 h, 10 µM stood at 111%.

On to `N#Cc1c(NC(=O)CSc2nnc(N)s2)sc2c1CCCC2` [CBK266649], for which the viability at 28.5 h, 10 µM was determined as 99.8%.

Regarding `CC(=O)NCCOc1nc(N(C)C)nc(N2CCOCC2)n1` [CBK266651], the viability at 28.5 h, 10 µM was determined as 96.7%.

As to `Cc1ccc(-c2nnc(N3CCN(C(=O)CSc4nc[nH]n4)CC3)c3ccccc23)cc1` [CBK266652], the viability at 28.5 h, 10 µM is 107%.

Turning to `O=C(CS(=O)(=O)Cc1ccccc1)Nc1ccc(S(=O)(=O)N2CCCCCC2)cc1` [CBK266653], the viability at 28.5 h, 10 µM is 98.8%.

Take `Nc1nc(CN2C(=O)c3ccccc3C2=O)n[nH]1` [CBK266655]: the viability at 28.5 h, 10 µM worked out at 105%.

Turning to `COc1ccc(C2=NN(C(=O)CCC(=O)O)C(c3cccs3)C2)cc1OC` (stereo not shown) [CBK266656], the viability at 28.5 h, 10 µM was 118%.

`CN(CCO)S(=O)(=O)c1cccc(C(=O)O)c1` [CBK266657]: the viability at 28.5 h, 10 µM worked out at 89.4%.

Consider `O=C(CS(=O)(=O)Cc1ccccc1)Nc1ccc(S(=O)(=O)N2CCOCC2)cc1` [CBK266658], for which the viability at 28.5 h, 10 µM came out at 88.8%.

As for `OCCN1CCN(c2nc(NCC3CCCO3)c3ccccc3n2)CC1` (stereo not shown) [CBK266659C], the viability at 28.5 h, 10 µM amounted to 99.1%.

Regarding `CC1CCCCC1NC(=O)CSc1nnc(CN2CCOCC2)n1C` (stereo not shown) [CBK266662], the viability at 28.5 h, 10 µM came out at 102%.

Consider `COc1ccccc1Nc1nc(N)c2ccccc2n1` [CBK266665C], for which the viability at 28.5 h, 10 µM came to 90.4%.

Take `CCN1CCN(C(=O)CN(CCc2ccccc2)S(C)(=O)=O)CC1` [CBK266666]: the viability at 28.5 h, 10 µM was determined as 91.8%.

Regarding `OCCNc1nc(N2CCN(Cc3ccccc3)CC2)nc2ccccc12` [CBK266667C], the viability at 28.5 h, 10 µM was 92.5%.

`CCN1CCN(C(=O)CN(Cc2ccccc2)S(=O)(=O)c2c(C)cc(C)cc2C)CC1` [CBK266670]: the viability at 28.5 h, 10 µM is 98.1%.

As to `COc1ccccc1NC(=O)C(=O)NCCc1c[nH]c2ccccc12` [CBK266672], the viability at 28.5 h, 10 µM was found to be 108%.

As for `CCN1CCN(S(=O)(=O)c2cccc([N+](=O)[O-])c2)CC1` [CBK266675], the viability at 28.5 h, 10 µM came out at 83.8%.

With `O=[N+]([O-])c1cccc(S(=O)(=O)NCCCn2ccnc2)c1` [CBK266676], the viability at 28.5 h, 10 µM turned out to be 91.1%.

As for `COc1ccc2nc(NC(=N)NC(=S)Nc3ccc(Cl)cc3)nc(C)c2c1` [CBK266677], the viability at 28.5 h, 10 µM worked out at 88.3%.

`O=C(NCc1cccnc1)C1CCC(Cn2c(=S)[nH]c3ccccc3c2=O)CC1` (stereo not shown) [CBK266678]: the viability at 28.5 h, 10 µM is 87.9%.

For `COc1cc(C)nc(NC(=O)COc2ccc(Cl)cc2C)n1` [CBK266681], the viability at 28.5 h, 10 µM stood at 106%.

As to `CCN1CCN(c2ccc(NC(=O)c3ccc(OCc4ccccc4)cc3)cc2Cl)CC1` [CBK266683], the viability at 28.5 h, 10 µM was 78%.

Consider `Cc1cc(Oc2ccccc2)nc(Oc2ccc(OCC(N)=O)nn2)n1` [CBK266687], for which the viability at 28.5 h, 10 µM came to 98.5%.

`COC(=O)C(C)(C)C1c2cc(Br)ccc2OC(=O)C1C(=O)c1ccccc1` (stereo not shown) [CBK266690]: the viability at 28.5 h, 10 µM is 102%.

Turning to `NS(=O)(=O)c1ccc(S(=O)(=O)NCCc2c[nH]c3ccccc23)cc1` [CBK266691], the viability at 28.5 h, 10 µM is 82.2%.

For `O=C(CN1C(=O)c2ccccc2C1=O)Nc1ccc(S(=O)(=O)N2CCCCCC2)cc1` [CBK266693], the viability at 28.5 h, 10 µM is 91.7%.

As for `Nc1nnc(SCC(=O)N2CCN(C(c3ccccc3)c3ccccc3)CC2)n1-c1ccccc1` [CBK266696], the viability at 28.5 h, 10 µM stood at 108%.

`Cc1ccccc1OCC(O)Cn1c(=N)n(CCN2CCCCC2)c2ccccc21` (stereo not shown) [CBK266698C]: the viability at 28.5 h, 10 µM was determined as 98.1%.

Regarding `Cc1nc(NS(=O)(=O)c2ccccc2)sc1NC(=O)Nn1cnnc1` [CBK266699], the viability at 28.5 h, 10 µM worked out at 85.4%.

As to `O=C(Cn1cc(C(=S)N2CCOCC2)c2ccccc21)Nc1ccc2c(c1)OCO2` [CBK266703], the viability at 28.5 h, 10 µM came out at 94.6%.

Take `CSc1cccc(NC(=O)CN(C)S(=O)(=O)c2ccc3ccccc3c2)c1` [CBK266708]: the viability at 28.5 h, 10 µM was 86.2%.

As for `CCc1cc2c(NC(CCSC)C(=O)O)nc(C)nc2s1` (stereo not shown) [CBK266709], the viability at 28.5 h, 10 µM was 90.3%.

Regarding `Cc1ccc(-c2nnc3c4ccccc4c(C)nn23)cc1S(=O)(=O)NC(C)c1ccccc1` (stereo not shown) [CBK266715], the viability at 28.5 h, 10 µM was 94.5%.

In the case of `Cc1ccc(NC2=NC(C(=O)Nc3ccc(C)c(C)c3)CC(=O)N2)cc1` (stereo not shown) [CBK266718], the viability at 28.5 h, 10 µM came out at 96.9%.

Regarding `COc1ccc(Cl)cc1NC(=O)CN(C1CCCCC1)S(C)(=O)=O` [CBK266720], the viability at 28.5 h, 10 µM is 105%.

Regarding `COC(=O)c1c(NC(=O)COc2ccccc2C(C)C)sc2c1CCCC2` [CBK266722], the viability at 28.5 h, 10 µM worked out at 93.5%.

Turning to `Cc1sc2c(c1C)c(=O)nc1scc(CC(=O)NCCO)n12` [CBK266726], the viability at 28.5 h, 10 µM is 96.3%.

For `Cc1ccc(S(=O)(=O)/N=C(\Nc2nc3ccccc3o2)NS(=O)(=O)c2ccc(C)cc2)cc1` [CBK266728], the viability at 28.5 h, 10 µM worked out at 86%.

As to `Cc1ccc(S(=O)(=O)N(C)CC(=O)Nc2ncc(C(F)(F)F)cc2Cl)cc1` [CBK266729], the viability at 28.5 h, 10 µM stood at 94.8%.

Take `Cc1cc(=O)oc2c1c(C)nn2-c1nn[nH]n1` [CBK266732]: the viability at 28.5 h, 10 µM amounted to 91%.

Take `COc1ccccc1Nc1nc(N)nc(CSc2ncccn2)n1` [CBK266734]: the viability at 28.5 h, 10 µM amounted to 104%.

As for `Cc1cc(/C=C(/C#N)c2ccc([N+](=O)[O-])cc2)c(C)n1-c1ccc(S(N)(=O)=O)cc1` [CBK266737], the viability at 28.5 h, 10 µM came out at 108%.

As to `Cc1nc(N2CCN(Cc3ccc4c(c3)OCO4)CC2)c2c(C)c(C)sc2n1` [CBK266739], the viability at 28.5 h, 10 µM was found to be 100%.

On to `COc1ccc(OCC(=O)Nc2cccc(-c3nnc4c5ccccc5c(C)nn34)c2)cc1` [CBK266743], for which the viability at 28.5 h, 10 µM worked out at 105%.

As for `O=C1Nc2ccc(S(=O)(=O)NCC(O)c3ccc([N+](=O)[O-])cc3)c3cccc1c23` (stereo not shown) [CBK266745], the viability at 28.5 h, 10 µM was found to be 88.1%.

As to `CN(CC(=O)Nc1cccc(Cl)c1)S(=O)(=O)c1ccc2ccccc2c1` [CBK266746], the viability at 28.5 h, 10 µM stood at 105%.

On to `COc1ccc(N2CCN(/C(=N/S(=O)(=O)c3ccccc3)Nc3nc(C)cc(C)n3)CC2)cc1` [CBK266750], for which the viability at 28.5 h, 10 µM was found to be 88.7%.

As for `O=C(CSc1nnc(-c2ccncc2)n1-c1ccccc1)c1ccc(Br)cc1` [CBK266758], the viability at 28.5 h, 10 µM was 93.9%.

Consider `CC(Oc1ccc(Br)cc1)C(=O)Nc1ccc(C(N)=O)cc1` (stereo not shown) [CBK266760], for which the viability at 28.5 h, 10 µM stood at 112%.

For `Cc1ccc(O)c(NC(=O)c2ccccc2-c2ccccc2C(=O)O)c1` [CBK266763], the viability at 28.5 h, 10 µM came to 82.9%.

For `Cc1ccc([N+](=O)[O-])cc1NC(=O)c1cc(S(=O)(=O)N(C)C)c(Cl)cc1Cl` [CBK266764], the viability at 28.5 h, 10 µM was found to be 105%.

Take `CC(CNC(=O)COc1cc(Cl)c(Cl)cc1Cl)CN(C)C` (stereo not shown) [CBK266766]: the viability at 28.5 h, 10 µM is 88.1%.

With `CC(Oc1ccc(Cl)cc1Cl)C(=O)Nc1ccc2oc(-c3ccncc3)nc2c1` (stereo not shown) [CBK266768], the viability at 28.5 h, 10 µM was 109%.

Turning to `COc1ccc(C(=O)Nc2ccccc2)cc1S(=O)(=O)Nc1cccnc1` [CBK266771], the viability at 28.5 h, 10 µM was 94.4%.

Consider `CCCn1nnc(NC(=O)C(C)Oc2ccc(Cl)cc2Cl)n1` (stereo not shown) [CBK266772], for which the viability at 28.5 h, 10 µM turned out to be 98.6%.

In the case of `Cc1cc(Cl)c(S(=O)(=O)Nc2cccnc2)cc1OCC(=O)NC1CCCCC1` [CBK266773], the viability at 28.5 h, 10 µM was 92.7%.

As to `Cc1cccc(-c2nnc(-c3ccc(NC(=O)CSCc4ccccc4)cc3)o2)c1` [CBK266775], the viability at 28.5 h, 10 µM is 109%.

Regarding `O=C(CCSc1c(Cl)cccc1[N+](=O)[O-])Nc1ccc(Br)c2cccnc12` [CBK266777], the viability at 28.5 h, 10 µM was 101%.

As to `Cc1ccc(C(=O)COc2ccc(/C=C(\C#N)c3nc(-c4ccc5c(c4)OCO5)cs3)cc2)cc1` [CBK266778], the viability at 28.5 h, 10 µM worked out at 101%.
